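In this assay, cells in 96-well plates receive the compound at five concentrations for 48 hours. Endpoints are linearly interpolated between the surrounding concentrations. Here, GI50 denotes the concentration required for 50% inhibition of growth. The concentration for full growth arrest is given as TGI.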
Key:
Assay in all cases: growth of human tumour cells (NCI), 48 h
[1] = test system: 786-0 renal
[2] = test system: A498 renal
[3] = test system: A549 NSCLC
[4] = test system: ACHN renal
[5] = test system: BT-549 breast
[6] = test system: CAKI-1 renal
[7] = test system: CCRF-CEM leukemia
[8] = test system: COLO 205 colon
[9] = test system: DU-145 prostate
[10] = test system: EKVX NSCLC
[11] = test system: HCC-2998 colon
[12] = test system: HCT-116 colon
[13] = test system: HCT-15 colon
[14] = test system: HL-60(TB) leukemia
[15] = test system: HOP-62 NSCLC
[16] = test system: HOP-92 NSCLC
[17] = test system: HS 578T breast
[18] = test system: HT29 colon
[19] = test system: IGROV1 ovarian
[20] = test system: K-562 leukemia
[21] = test system: KM12 colon
[22] = test system: LOX IMVI melanoma
[23] = test system: M14 melanoma
[24] = test system: MALME-3M melanoma
[25] = test system: MCF7 breast
[26] = test system: MDA-MB-231 breast
[27] = test system: MDA-MB-435
[28] = test system: MOLT-4 leukemia
[29] = test system: NCI-H226 lung

In the case of `Cc1oncc1C(=O)Nc1ccc(C(F)(F)F)cc1`, the GI50 [1] is reported as 54.5 µM, the TGI [1] is reported as > 100 µM and the GI50 [2] is reported as 9.97 µM. The TGI [2] was 58.7 µM, the GI50 [3] was 39.8 µM and the TGI [3] was > 100 µM. For the same compound, the GI50 [4] was 41.7 µM, the TGI [4] was > 100 µM and the GI50 [5] was 22.1 µM. For the same compound, the TGI [5] was > 100 µM, the GI50 [6] was 33.3 µM and the TGI [6] was > 100 µM. For the same compound, the GI50 [7] was 17.8 µM, the TGI [7] was > 100 µM and the GI50 [8] was > 100 µM. For the same compound, the TGI [8] was > 100 µM, the GI50 [9] was 56.1 µM and the TGI [9] was > 100 µM. For the same compound, the GI50 [10] was 18.7 µM, the TGI [10] was > 100 µM and the GI50 [11] was 64.5 µM. The TGI [11] was > 100 µM, the GI50 [12] was 15.6 µM and the TGI [12] was > 100 µM. For the same compound, the GI50 [13] was 14.1 µM, the TGI [13] was > 100 µM and the GI50 [14] was 24.5 µM. For the same compound, the TGI [14] was > 100 µM, the GI50 [15] was > 100 µM and the TGI [15] was > 100 µM. It also gave a GI50 [16] of 6.17 µM, a TGI [16] of 46 µM and a GI50 [17] of 54.5 µM. For the same compound, the TGI [17] was > 100 µM, the GI50 [18] was 66.3 µM and the TGI [18] was > 100 µM. The GI50 [19] was 26.7 µM, the TGI [19] was > 100 µM and the GI50 [20] was 12.1 µM. For the same compound, the TGI [20] was > 100 µM, the GI50 [21] was 35.8 µM and the TGI [21] was > 100 µM. For the same compound, the GI50 [22] was 19.1 µM, the TGI [22] was > 100 µM and the GI50 [23] was 68.2 µM. For the same compound, the TGI [23] was > 100 µM, the GI50 [24] was 20.5 µM and the TGI [24] was > 100 µM. The GI50 [25] was > 100 µM, the TGI [25] was > 100 µM and the GI50 [26] was 25.9 µM. The TGI [26] was > 100 µM, the GI50 [27] was 46.9 µM and the TGI [27] was > 100 µM. The GI50 [28] was 36.4 µM, the TGI [28] was > 100 µM and the GI50 [29] was 35.1 µM.

— PubChem BioAssay (NCI)
